# Assay results reported in the supplement of paper PMC11208160.
# Assay: recombinant UMI read abundance after kanamycin selection (control-corrected) (log10(CPM+1)); higher = more efficient recombination; extreme values may be limits of the assay; sequences stand for … in AGTGCAGAGAAAATCGGCCAGTTTTCTCTGCCTGCAGTCCGCATGCCGTGGGACCCCTTGGGTTCTAACCTGTTGCCTAGATTTATGCAGCGGACTGCCTTTCTCCCAAAGTGATAAACCGG…AGGTTGGTTTCACT; site = the 11-nt donor
# Method: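 Pooled E. coli donor-specificity screen for the IS621 bridge recombinase. Each library member carries a reprogrammed 11-nt donor and a full-length LE bridge RNA expressed in cis from the natural promoter, with a paired donor-binding loop (8-nt LDG + 4-nt RDG) and a target-binding loop fixed to T5. It is co-electroporated with a T5 target plasmid; recombinase is induced with 0.07 mM IPTG and recombinants are selected on kanamycin. UMIs are counted as CPM, averaged over two biological replicates and corrected by the unselected control. Molecule = full bridge RNA written as DNA, built from the T5 scaffold: LDG = donor specificity nt 1-8, RDG = reverse complement of nt 8-11.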
# 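Further: IS621 bridge recombinase in Escherichia coli cells against a fixed T5 target plasmid.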
row,Sequence,recombinant UMI read abundance (log10)
1,ACATCAACATGGACCGGTTTTCCCGGTAATCCGTATTTGTC (site ACATCAACTGA),1.34
2,ACATCAACATGGACCGGTTTTCCCGGTAATCCGTATTTGTG (site ACATCAACTCA),0.878
3,ACATCAACATGGACCGGTTTTCCCGGTAATCCGTATTTGTG (site ACATCCACTCA),0.0219
4,ACATCAACATGGACCGGTTTTCCCGGTAATCCGTATTTGTG (site ACATCGACTCA),0.0265
5,ACATCAACATGGACCGGTTTTCCCGGTAATCCGTATTTGTG (site ACATCTACTCA),0.206
6,ACATCCTCATGGACCGGTTTTCCCGGTAATCCGTATTTGTC (site ACATCCTCTGA),2.8
7,ACATGTACATGGACCGGTTTTCCCGGTAATCCGTATTTGAC (site ACATGTACTGT),1.76
8,ACATTATCATGGACCGGTTTTCCCGGTAATCCGTATTTGCA (site ACAATATCTTG),1.92
9,ACATTATCATGGACCGGTTTTCCCGGTAATCCGTATTTGCA (site ACACTATCTTG),2.24
10,ACATTATCATGGACCGGTTTTCCCGGTAATCCGTATTTGCA (site ACAGTATCTTG),1.69
11,ACATTATCATGGACCGGTTTTCCCGGTAATCCGTATTTGCA (site ACATTATCTTG),2.01
12,ACCAACCCATGGACCGGTTTTCCCGGTAATCCGTATTTGCG (site ACCAACCCTCG),0
13,ACCAAGACATGGACCGGTTTTCCCGGTAATCCGTATTTGGG (site ACCAAGACTCC),0.0181
14,ACCAAGACATGGACCGGTTTTCCCGGTAATCCGTATTTGGG (site ACCCAGACTCC),0.0318
15,ACCAAGACATGGACCGGTTTTCCCGGTAATCCGTATTTGGG (site ACCGAGACTCC),0.0218
16,ACCAAGACATGGACCGGTTTTCCCGGTAATCCGTATTTGGG (site ACCTAGACTCC),0.0189
17,ACCAGAACATGGACCGGTTTTCCCGGTAATCCGTATTTGAA (site ACCAGAACTTT),1.72
18,ACCAGTCCATGGACCGGTTTTCCCGGTAATCCGTATTTGCG (site GATGCATCTTA),0
19,ACCAGTGCATGGACCGGTTTTCCCGGTAATCCGTATTTGGT (site ACAAGTGCTAC),0.0927

row,Sequence,recombinant UMI read abundance (log10)
1,ACCAGTGCATGGACCGGTTTTCCCGGTAATCCGTATTTGGT (site ACCAGTGCTAC),0.472
2,ACCAGTGCATGGACCGGTTTTCCCGGTAATCCGTATTTGGT (site ACGAGTGCTAC),0.0125
3,ACCAGTGCATGGACCGGTTTTCCCGGTAATCCGTATTTGGT (site ACTAGTGCTAC),0.19
4,ACCCAAGCATGGACCGGTTTTCCCGGTAATCCGTATTTGAG (site AACCAAGCTCT),0.712
5,ACCCAAGCATGGACCGGTTTTCCCGGTAATCCGTATTTGAG (site ACCCAAGCTCT),1.97
6,ACCCAAGCATGGACCGGTTTTCCCGGTAATCCGTATTTGAG (site AGCCAAGCTCT),0.021
7,ACCCAAGCATGGACCGGTTTTCCCGGTAATCCGTATTTGAG (site ATCCAAGCTCT),0.467
8,ACCCACCCATGGACCGGTTTTCCCGGTAATCCGTATTTGAG (site ACCCACCCTCT),0.00795
9,ACCCTAGCATGGACCGGTTTTCCCGGTAATCCGTATTTGAT (site ACCCTAGCTAT),0.558
10,ACCCTCTCATGGACCGGTTTTCCCGGTAATCCGTATTTGGG (site ACCCTCTCTCC),0.0124
11,ACCGAGGCATGGACCGGTTTTCCCGGTAATCCGTATTTGGG (site ACCGAGGCTCC),0.157
12,ACCGCGGCATGGACCGGTTTTCCCGGTAATCCGTATTTGAT (site ACCGCGGCTAT),1.78
13,ACCGGATCATGGACCGGTTTTCCCGGTAATCCGTATTTGAG (site ACCGGATCTCT),1.22
14,ACCGGATCATGGACCGGTTTTCCCGGTAATCCGTATTTGCG (site ACCGGATCTCG),2.56
15,ACCGTAACATGGACCGGTTTTCCCGGTAATCCGTATTTGCA (site ACAGTATCTTG),1.49
16,ACCGTAACATGGACCGGTTTTCCCGGTAATCCGTATTTGCA (site ACCGTAACTTG),2.34
17,ACCGTATCATGGACCGGTTTTCCCGGTAATCCGTATTTGGA (site ACAGTATCTTG),0.692
18,ACCGTATCATGGACCGGTTTTCCCGGTAATCCGTATTTGGA (site ACCGTATCTTC),1.83
19,ACCTAGACATGGACCGGTTTTCCCGGTAATCCGTATTTGGA (site ACCTAGACTAC),0

row,Sequence,recombinant UMI read abundance (log10)
1,ACCTAGACATGGACCGGTTTTCCCGGTAATCCGTATTTGGA (site ACCTAGACTCC),0.0104
2,ACCTAGACATGGACCGGTTTTCCCGGTAATCCGTATTTGGA (site ACCTAGACTGC),0
3,ACCTAGACATGGACCGGTTTTCCCGGTAATCCGTATTTGGA (site ACCTAGACTTC),0.725
4,ACCTAGTCATGGACCGGTTTTCCCGGTAATCCGTATTTGGG (site ACCTAGACTCC),0
5,ACCTAGTCATGGACCGGTTTTCCCGGTAATCCGTATTTGGG (site ACCTAGCCTCC),0.017
6,ACCTAGTCATGGACCGGTTTTCCCGGTAATCCGTATTTGGG (site ACCTAGGCTCC),0.0399
7,ACCTAGTCATGGACCGGTTTTCCCGGTAATCCGTATTTGGG (site ACCTAGTCTCC),0.0642
8,ACCTATACATGGACCGGTTTTCCCGGTAATCCGTATTTGAC (site AACTATACTGT),0
9,ACCTATACATGGACCGGTTTTCCCGGTAATCCGTATTTGAC (site ACCTATACTGT),1.58
10,ACCTATACATGGACCGGTTTTCCCGGTAATCCGTATTTGAC (site AGCTATACTGT),0.0116
11,ACCTATACATGGACCGGTTTTCCCGGTAATCCGTATTTGAC (site ATCTATACTGT),0.368
12,ACCTCGGCATGGACCGGTTTTCCCGGTAATCCGTATTTGTT (site ACCTCGGCTAA),0.681
13,ACCTGGGCATGGACCGGTTTTCCCGGTAATCCGTATTTGCA (site ACCTGGGCTTG),0.909
14,ACCTTGACATGGACCGGTTTTCCCGGTAATCCGTATTTGGG (site ACCTAGACTCC),0.0118
15,ACCTTGACATGGACCGGTTTTCCCGGTAATCCGTATTTGGG (site ACCTCGACTCC),0.0142
16,ACCTTGACATGGACCGGTTTTCCCGGTAATCCGTATTTGGG (site ACCTGGACTCC),0.0127
17,ACCTTGACATGGACCGGTTTTCCCGGTAATCCGTATTTGGG (site ACCTTGACTCC),0.0408
18,ACGAAGACATGGACCGGTTTTCCCGGTAATCCGTATTTGCA (site AAGAAGACTTG),2.3
19,ACGAAGACATGGACCGGTTTTCCCGGTAATCCGTATTTGCA (site ACGAAGACTTG),2.78
